The target in the first data set is T1, AIMP2-DX2 (Homo sapiens, UniProt Q13155).
T1 sequence (Q13155 1-251 isoform Q13155-2): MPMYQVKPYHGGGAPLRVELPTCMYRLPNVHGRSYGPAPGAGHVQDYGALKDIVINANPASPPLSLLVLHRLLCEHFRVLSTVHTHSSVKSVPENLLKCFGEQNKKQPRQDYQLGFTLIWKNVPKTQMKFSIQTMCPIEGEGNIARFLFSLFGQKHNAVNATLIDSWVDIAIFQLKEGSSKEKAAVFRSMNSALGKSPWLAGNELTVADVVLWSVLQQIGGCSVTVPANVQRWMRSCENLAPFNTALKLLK
The data set is described as follows: DX2-nanoluciferase assay (DX2 expression change) in transfected A549 cells. Conditions: A549, 4 h, read-out: DX-Nanoluciferase activity (10 μM), 10 μM, 4 hours treatment, A549 cells transfected with nanoluciferase-DX2.
Experimental: After cloning DX2 into a plasmid expressing nanoluciferase, the plasmid was transfected into A549 cells. Transfected cells were seeded 1×10^4 per well in a 96-well plate and stabilized for 12 hours. […] Cell viability was measured by the MTT method after 72 hours of treatment with each concentration of the compound in A549 cells.
For `COc1cc(N2CCN(C(C)=O)CC2)ccc1NC(=O)[C@H](Cc1c[nH]c2ccccc12)NS(=O)(=O)c1ccc(C)cc1` [Compound 161, (S)—N-(4-(4-Acetylpiperazin-1-yl)-2-methoxyphenyl)-3-(1H-indol-3-yl)-2-(4-methylphenylsulfonamido)propanamide], the inhibition at 10 µM was 25.2 ± 9.86%.
The same measure, in the same setting: for `O=C(Nc1nc(-c2ccc([N+](=O)[O-])cc2)cs1)[C@H](Cc1c[nH]c2ccccc12)NS(=O)(=O)c1ccc(Br)cc1` [Compound 190, (S)-2-(4-Bromophenylsulfonamido)-3-(1H-indol-3-yl)-N-(4-(4-nitrophenyl)thiazol-2-yl)propanamide] the value was 29.6 ± 14%; for `CCCCCCCCCC(=O)NNC(=O)[C@H](Cc1c[nH]c2ccccc12)NS(=O)(=O)c1ccc(Br)cc1` [Compound 195, (S)-4-Bromo-N-(1-(2-decanoylhydrazinyl)-3-(1H-indol-3-yl)-1-oxopropan-2-yl)benzenesulfonamide], 45.4 ± 5.61%.

The same data set, now with this note: A549, 4 h, read-out: DX-Nanoluciferase activity (40 μM), 40 μM, 4 hours treatment, A549 cells transfected with nanoluciferase-DX2; inhibitory effect on AIMP2-DX2 expression.
On to `Cc1ccc(S(=O)(=O)N[C@@H](CC(C)C)C(=O)N2CCOCCOCCOCC2)cc1` [Compound 3, (S)-4-methyl-N-(4-methyl-1-oxo-1-(1,4,7-trioxa-10-azacyclododecan-10-yl)pentan-2-yl)benzenesulfonamide], for which the inhibition at 40 µM is 55.8 ± 14.8%.
In the case of `Cc1ccc(S(=O)(=O)N[C@H](CC(C)C)C(=O)N2CCOCCOCCOCC2)cc1` [Compound 4, (R)-4-methyl-N-(4-methyl-1-oxo-1-(1,4,7-trioxa-10-azacyclododecan-10-yl)-Pentan-2-yl)benzenesulfonamide], the inhibition at 40 µM worked out at 10.7 ± 12.8%.
Consider `Cc1ccc(S(=O)(=O)N[C@@H](CC(C)C)C(=O)N2CCS(=O)(=O)CC2)cc1` [Compound 5, (S)—N-(1-(1,1-dioxidothiomorpholino)-4-methyl-1-oxopentan-2-yl)-4-methylbenzenesulfonamide], for which the inhibition at 40 µM was found to be 47.4 ± 7.4%.
`Cc1ccc(S(=O)(=O)N[C@@H](CC(C)C)C(=O)N2CCC[C@@H]2CO)cc1` [Compound 6, N—((S)-1-((R)-2-(hydroxymethyl)pyrrolidin-1-yl)-4-methyl-1-oxopentan-2-yl)-4-methylbenzenesulfonamide]: the inhibition at 40 µM was 39.9 ± 7.4%.
For the molecule `Cc1ccc(S(=O)(=O)N[C@@H](CC(=O)O)C(=O)Nc2ccc(N3CCOCC3)cc2)cc1` [Compound 145, (S)-3-(4-Methylphenylsulfonamido)-4-(4-morpholinophenylamino)-4-oxobutanoic acid], the inhibition at 40 µM was -11.1 ± 19.2%.
In the case of `Cc1ccc(S(=O)(=O)N[C@@H](Cc2c[nH]c3ccccc23)C(=O)NCc2cccs2)cc1` [Compound 150, (S)-3-(1H-indol-3-yl)-2-(4-methylphenylsulfonamido)-N-(thiophen-2-ylmethyl)propanamide], the inhibition at 40 µM was -17.7 ± 16.6%.
The same measure, in the same setting: for `CC(=O)Nc1cccc(S(=O)(=O)N[C@@H](CC(C)C)C(=O)N2CCOCC2)c1` [Compound 153, (S)—N-(3-(N-(4-methyl-1-morpholino-1-oxopentan-2-yl)sulfamoyl)phenyl)acetamide] the value was 26.9 ± 6.7%; for `CC(C)C[C@H](NC(=O)Nc1ccccc1)C(=O)OCc1ccccc1` [Compound 154, (S)-Benzyl 4-methyl-2-(3-phenylureido)pentanoate], 40.5 ± 7.7%.
Take `Cc1ccc(S(=O)(=O)N[C@@H](Cc2c[nH]c3ccccc23)C(=O)NCc2ccco2)cc1` [Compound 178, (S)—N-(furan-2-ylmethyl)-3-(1H-indol-3-yl)-2-(4-methylphenylsulfonamido)propanamide]: the inhibition at 40 µM came out at 1.52 ± 5.08%.
Still for that read-out and setting: for `O=C(NCc1ccco1)[C@H](Cc1c[nH]c2ccccc12)NS(=O)(=O)c1ccc(Br)cc1` [Compound 179, (S)-2-(4-Bromophenylsulfonamido)-N-(furan-2-ylmethyl)-3-(1H-indol-3-yl)propanamide] the value was -4.97 ± 1.37%; for `CCCCCCCCCC(=O)NNC(=O)[C@H](Cc1c[nH]c2ccccc12)NS(=O)(=O)c1ccc(Br)cc1` [Compound 195, (S)-4-Bromo-N-(1-(2-decanoylhydrazinyl)-3-(1H-indol-3-yl)-1-oxopropan-2-yl)benzenesulfonamide], 45.4 ± 5.61%.

The next data set relates to A549 cells. Briefly: Cell viability by MTT method in A549 cells. The data set is classed as cell-based. Set-up: concentration or dose not given beside the values. The conditions noted are these: 72 hours treatment.
Regarding `Cc1ccc(S(=O)(=O)N[C@@H](CC(C)C)C(=O)N2CCOCCOCCOCC2)cc1` [Compound 3, (S)-4-methyl-N-(4-methyl-1-oxo-1-(1,4,7-trioxa-10-azacyclododecan-10-yl)pentan-2-yl)benzenesulfonamide], the “Cell Viability (% inhibition) (A549)” value came out at 8.64%.
Regarding `Cc1ccc(S(=O)(=O)N[C@H](CC(C)C)C(=O)N2CCOCCOCCOCC2)cc1` [Compound 4, (R)-4-methyl-N-(4-methyl-1-oxo-1-(1,4,7-trioxa-10-azacyclododecan-10-yl)-Pentan-2-yl)benzenesulfonamide], the “Cell Viability (% inhibition) (A549)” value was 15.11%.
Same read-out and setting: for `Cc1ccc(S(=O)(=O)N[C@@H](CC(C)C)C(=O)N2CCS(=O)(=O)CC2)cc1` [Compound 5, (S)—N-(1-(1,1-dioxidothiomorpholino)-4-methyl-1-oxopentan-2-yl)-4-methylbenzenesulfonamide] the value was 15.98%.
The same measure, in the same setting: for `Cc1ccc(S(=O)(=O)N[C@@H](CC(C)C)C(=O)N2CCC[C@@H]2CO)cc1` [Compound 6, N—((S)-1-((R)-2-(hydroxymethyl)pyrrolidin-1-yl)-4-methyl-1-oxopentan-2-yl)-4-methylbenzenesulfonamide] the value was 15.98%.
In the case of `Cc1ccc(S(=O)(=O)N[C@@H](Cc2c[nH]c3ccccc23)C(=O)NCCCc2ccccc2)cc1` [Compound 206, (S)-3-(1H-indol-3-yl)-2-(4-methylphenylsulfonamido)-N-(3-phenylpropyl)propanamide], the “Cell Viability (% inhibition) (A549)” value is 67.48 ± 2.35%.
Same read-out and setting: with `Cc1ccc(S(=O)(=O)N[C@@H](Cc2c[nH]c3ccccc23)C(=O)NCCc2ccc(F)cc2)cc1` [Compound 207, (S)—N-(4-fluorophenethyl)-3-(1H-indol-3-yl)-2-(4-methylphenylsulfonamido)propanamide] the figure was 64.02 ± 2.15%.
In the case of `Cc1ccc(S(=O)(=O)N[C@@H](Cc2c[nH]c3ccccc23)C(=O)Nc2nc(-c3ccc(C(F)(F)F)cc3)cs2)cc1` [Compound 208, (S)-3-(1H-indol-3-yl)-2-(4-methylphenylsulfonamido)-N-(4-(4-(trifluoromethyl)phenyl)thiazol-2-yl)propanamide], the “Cell Viability (% inhibition) (A549)” value is 82.89 ± 1.06%.
Same read-out and setting: for `O=C(NCCc1c[nH]c2ccccc12)[C@H](Cc1c[nH]c2ccccc12)NS(=O)(=O)c1ccc(Br)cc1` [Compound 209, (S)—N-(2-(1H-indol-3-yl)ethyl)-2-(4-bromophenylsulfonamido)-3-(1H-indol-3-yl)propanamide] the value was 89.27 ± 0.77%; for `COc1ccc(-c2csc(NC(=O)[C@H](Cc3c[nH]c4ccccc34)NC(=O)c3ccc(C)cc3)n2)cc1` [Compound 210, (S)—N-(3-(1H-indol-3-yl)-1-((4-(4-methoxyphenyl)thiazol-2-yl)amino)-1-oxopropan-2-yl)-4-methylbenzamide], 40.83 ± 8.13%.
In the case of `COc1ccc(-c2csc(NC(=O)[C@H](Cc3c[nH]c4ccccc34)NS(=O)(=O)c3ccc(Cl)cc3)n2)cc1` [Compound 211, (S)-2-(4-Chlorophenylsulfonamido)-3-(1H-indol-3-yl)-N-(4-(4-methoxyphenyl)thiazol-2-yl)propanamide], the “Cell Viability (% inhibition) (A549)” value was found to be 83.3 ± 1.04%.
For the molecule `COc1ccc(-c2csc(NC(=O)[C@H](Cc3c[nH]c4ccccc34)NS(=O)(=O)c3ccc(C(F)(F)F)cc3)n2)cc1` [Compound 212, (S)-3-(1H-indol-3-yl)-N-(4-(4-methoxyphenyl)thiazol-2-yl)-2-(4-(trifluoromethyl)phenylsulfonamido)propanamide], the “Cell Viability (% inhibition) (A549)” value is 84.25 ± 0.99%.
The same measure, in the same setting: with `COc1ccc(-c2csc(NC(=O)[C@H](Cc3c[nH]c4ccccc34)NS(=O)(=O)c3ccc(F)cc3)n2)cc1` [Compound 213, (S)-2-(4-Fluorophenylsulfonamido)-3-(1H-indol-3-yl)-N-(4-(4-methoxyphenyl)thiazol-2-yl)propanamide] the figure was 83.29 ± 1.04%; with `C[C@]12C[C@@H]3C[C@](C)(C1)C[C@@](NC(=O)[C@H](Cc1c[nH]c4ccccc14)NS(=O)(=O)c1ccc(Br)cc1)(C3)C2` [Compound 214, (S)-2-(4-Bromophenylsulfonamido)-N-((1r,3R,5S,7S)-3,5-dimethyladamantan-1-yl)-3-(1H-indol-3-yl)propanamide], 86.93 ± 0.26%.
The same measure, in the same setting: with `Cc1ccc(C(=O)N[C@@H](Cc2c[nH]c3ccccc23)C(=O)OCc2ccccc2)cc1` [Compound 216, (S)-Benzyl 3-(1H-indol-3-yl)-2-(4-methylbenzamido)propanoate] the figure was 69.96 ± 2.46%.
For the molecule `COC(=O)c1ccc(-c2csc(NC(=O)[C@H](Cc3c[nH]c4ccccc34)NS(=O)(=O)c3ccc(C)cc3)n2)cc1` [Compound 227, (S)-Methyl 4-(2-(3-(1H-indol-3-yl)-2-(4-methylphenylsulfonamido)propanamido)thiazol-4-yl)benzoate], the “Cell Viability (% inhibition) (A549)” value was 84.63 ± 0.51%.
In the case of `Cc1ccc(S(=O)(=O)N[C@@H](Cc2c[nH]c3ccccc23)C(=O)Nc2nc(-c3ccc(C(=O)O)cc3)cs2)cc1` [Compound 228, (S)-4-(2-(3-(1H-indol-3-yl)-2-(4-methylphenylsulfonamido)propanamido)thiazol-4-yl)benzoic acid], the “Cell Viability (% inhibition) (A549)” value was found to be 48.75 ± 5.85%.
Still for that read-out and setting: for `COc1ccc(-c2csc(NC(=O)[C@H](CNc3nc4ccccc4o3)NS(=O)(=O)c3ccc(C)cc3)n2)cc1` [Compound 229, (S)-3-(Benzo[d]oxazol-2-ylamino)-N-(4-(4-methoxyphenyl)thiazol-2-yl)-2-(4-methylphenylsulfonamido)propanamide] the value was 74.91 ± 2.05%; for `COc1ccc(-c2csc(NC(=O)[C@H](CNC(=O)c3ccccc3)NS(=O)(=O)c3ccc(C)cc3)n2)cc1` [Compound 230, (S)—N-(3-((4-(4-methoxyphenyl)thiazol-2-yl)amino)-2-(4-methylphenylsulfonamido)-3-oxopropyl)benzamide], 71.56 ± 1.67%.
Turning to `COc1ccc(-c2csc(NC(=O)[C@H](CNC(=O)c3cccnc3)NS(=O)(=O)c3ccc(C)cc3)n2)cc1` [Compound 231, (S)—N-(3-((4-(4-methoxyphenyl)thiazol-2-yl)amino)-2-(4-methylphenylsulfonamido)-3-oxopropyl)nicotinamide], the “Cell Viability (% inhibition) (A549)” value is given as 47.63 ± 5.89%.
On the same count and under the same terms, with `COc1ccc(-c2csc(NC(=O)[C@H](CNC(=O)c3cncnc3)NS(=O)(=O)c3ccc(C)cc3)n2)cc1` [Compound 232, (S)—N-(3-((4-(4-methoxyphenyl)thiazol-2-yl)amino)-2-(4-methylphenylsulfonamido)-3-oxopropyl)pyrimidine-5-carboxamide] the figure was 40.98 ± 2.65%.

The values are drawn from patent US20220204497A1, “NOVEL COMPOUND HAVING ANTICANCER ACTIVITY, AND METHOD FOR PRODUCING SAME” (MEDICINAL BIOCONVERGENCE RESEARCH CENTER, priority 2019, published 2022).
